Columns and labels:
[1] = target: TIP60-KAT5 (Homo sapiens, UniProt Q92993); test: Acetyltransferase biochemical assay (AlphaScreen), KAT5
[2] = target: HBO-KAT7 (Homo sapiens, UniProt O95251); test: Acetyltransferase biochemical assay (AlphaScreen), KAT7
[3] = target: MOZ-KAT6A (Homo sapiens, UniProt Q92794, A567V); test: Acetyltransferase biochemical assay (AlphaScreen), KAT6A
Chain of MOZ-KAT6A (Q92794 with tags, fused parts or gaps A567V): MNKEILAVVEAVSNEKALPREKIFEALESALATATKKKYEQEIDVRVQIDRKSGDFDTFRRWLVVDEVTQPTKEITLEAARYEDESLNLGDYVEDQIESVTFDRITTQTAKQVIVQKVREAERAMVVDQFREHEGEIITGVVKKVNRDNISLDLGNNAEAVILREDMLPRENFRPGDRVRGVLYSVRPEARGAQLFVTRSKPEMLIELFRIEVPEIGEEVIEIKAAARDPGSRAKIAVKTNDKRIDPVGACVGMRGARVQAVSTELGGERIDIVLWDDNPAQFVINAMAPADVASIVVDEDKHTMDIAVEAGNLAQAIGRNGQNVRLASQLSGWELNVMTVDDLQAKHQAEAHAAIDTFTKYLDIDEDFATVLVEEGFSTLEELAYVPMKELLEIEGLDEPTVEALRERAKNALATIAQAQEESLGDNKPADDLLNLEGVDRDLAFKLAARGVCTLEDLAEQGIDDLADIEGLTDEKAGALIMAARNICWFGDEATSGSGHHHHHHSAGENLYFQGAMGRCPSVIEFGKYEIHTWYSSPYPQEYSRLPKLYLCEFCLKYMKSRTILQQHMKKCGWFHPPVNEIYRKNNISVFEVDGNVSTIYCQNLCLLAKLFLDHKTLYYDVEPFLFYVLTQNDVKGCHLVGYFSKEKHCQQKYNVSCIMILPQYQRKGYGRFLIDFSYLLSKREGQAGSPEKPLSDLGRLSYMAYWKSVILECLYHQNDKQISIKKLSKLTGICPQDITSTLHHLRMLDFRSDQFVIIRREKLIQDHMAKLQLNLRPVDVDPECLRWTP

Chain of HBO-KAT7 (O95251 with tags, fused parts or gaps): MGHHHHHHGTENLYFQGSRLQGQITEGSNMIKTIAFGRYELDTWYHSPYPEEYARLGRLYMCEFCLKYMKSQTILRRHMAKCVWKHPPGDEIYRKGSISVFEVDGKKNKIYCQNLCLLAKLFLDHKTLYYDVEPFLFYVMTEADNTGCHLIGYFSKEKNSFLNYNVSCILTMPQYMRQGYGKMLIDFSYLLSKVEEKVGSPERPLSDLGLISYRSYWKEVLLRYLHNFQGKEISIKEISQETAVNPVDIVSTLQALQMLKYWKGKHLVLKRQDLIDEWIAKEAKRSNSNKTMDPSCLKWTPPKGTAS
Chain of TIP60-KAT5 (Q92993 with tags, fused parts or gaps isoform Q92993-2): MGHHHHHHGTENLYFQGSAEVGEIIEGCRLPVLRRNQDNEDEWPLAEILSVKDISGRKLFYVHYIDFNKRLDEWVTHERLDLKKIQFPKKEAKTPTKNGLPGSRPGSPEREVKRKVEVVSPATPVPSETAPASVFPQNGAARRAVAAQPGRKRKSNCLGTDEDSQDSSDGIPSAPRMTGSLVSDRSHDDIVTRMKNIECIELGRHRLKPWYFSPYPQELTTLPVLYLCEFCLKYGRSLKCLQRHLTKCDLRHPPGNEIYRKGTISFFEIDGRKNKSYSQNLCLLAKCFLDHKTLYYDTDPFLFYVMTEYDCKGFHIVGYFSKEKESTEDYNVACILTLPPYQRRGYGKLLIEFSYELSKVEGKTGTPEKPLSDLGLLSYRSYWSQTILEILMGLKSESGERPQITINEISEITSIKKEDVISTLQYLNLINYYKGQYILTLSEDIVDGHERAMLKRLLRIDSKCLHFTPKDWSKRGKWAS

COC(=O)c1ccccc1S(=O)(=O)Nc1noc2cccc(Cl)c12 [Example 12, methyl 2-(N-(4-chlorobenzo[d]isoxazol-3-yl)sulfamoyl)benzoate]
IC50 [1]: > 125 µM | IC50 [2]: 49.9 µM | IC50 [3]: > 125 µM

CCc1ccc(OC)c(S(=O)(=O)Nc2noc3cccc(-c4cnn(C)c4)c23)c1 [Example 202, 5-Ethyl-2-methoxy-N-(4-(1-methyl-1H-pyrazol-4-yl)benzo[d]isoxazol-3-yl)benzenesulfonamide]
IC50 [1]: 111 µM | IC50 [2]: 54.4 µM | IC50 [3]: 18.9 µM

O=S(=O)(Nc1noc2cccc(Cl)c12)c1ccc(F)c(F)c1F [Example 117, N-(4-Chlorobenzo[d]isoxazol-3-yl)-2,3,4-trifluorobenzenesulfonamide]
IC50 [1]: > 125 µM | IC50 [2]: > 125 µM | IC50 [3]: 85.4 µM

CCc1ccc(OC)c(S(=O)(=O)Nc2noc3cc(-c4ncccn4)ccc23)c1 [Example 126, 5-Ethyl-2-methoxy-N-(6-(pyrimidin-2-yl)benzo[d]isoxazol-3-yl)benzenesulfonamide]
IC50 [1]: 51.3 µM | IC50 [2]: 28.9 µM | IC50 [3]: 10.5 µM

COc1cc(C)cc(C)c1S(=O)(=O)Nc1noc2cccc(OC)c12 [Example 72, 2-methoxy-N-(4-methoxybenzo[d]isoxazol-3-yl)-4,6-dimethylbenzene sulfonamide]
IC50 [1]: > 125 µM | IC50 [2]: 11.4 µM | IC50 [3]: 46.2 µM

COc1ccc(S(=O)(=O)Nc2noc3cc(C#N)c(C)cc23)c(OC)c1 [Example 169]
IC50 [1]: 63.2 µM | IC50 [2]: 8.65 µM | IC50 [3]: 24.8 µM

O=S(=O)(Nc1noc2cccc(Cl)c12)c1cccc2c1OCCO2 [Example 39, N-(4-chlorobenzo [d]isoxazol-3-yl)-2,3-dihydrobenzo[b][1,4]dioxine-5-sulfonamide]
IC50 [1]: > 125 µM | IC50 [2]: 10.1 µM | IC50 [3]: 38.2 µM

COc1cc(CO)cc(OC)c1S(=O)(=O)Nc1noc2cccc(OC)c12 [Example 209, 4-(Hydroxymethyl)-2,6-dimethoxy-N-(4-methoxybenzo[d]isoxazol-3-yl)benzenesulfonamide]
IC50 [1]: 28.7 µM | IC50 [2]: 1.05 µM | IC50 [3]: 2.03 µM

O=S(=O)(Nc1noc2ccccc12)c1ccc2c(c1)CCCC2 [Example 65, N-(benzo[d]isoxazol-3-yl)-5,6,7,8-tetrahydro-naphthalene-2-sulfonamide]
IC50 [1]: > 125 µM | IC50 [2]: 59.7 µM | IC50 [3]: 27.9 µM

COc1cccc2onc(NS(=O)(=O)c3ccccc3)c12 [Example 90, N-(4-Methoxybenzo[d]isoxazol-3-yl)benzenesulfonamide]
IC50 [1]: 90.7 µM | IC50 [2]: 18.9 µM | IC50 [3]: 4.78 µM

O=S(=O)(Nc1noc2ccccc12)c1ccc(Br)cn1 [Example 68, N-(benzo[d]isoxazol- -3-yl)-5-bromopyridine-2-sulfonamide]
IC50 [1]: > 125 µM | IC50 [2]: > 125 µM | IC50 [3]: 85.1 µM

O=S(=O)(Nc1noc2cccc(Cl)c12)c1cccc2cccnc12 [Example 123, N-(4-chlorobenzo[d]isoxazol-3-yl)quinoline-8-sulfonamide]
IC50 [1]: 59.4 µM | IC50 [2]: 4.2 µM | IC50 [3]: 26.9 µM

COc1cccc(OC(C)C)c1S(=O)(=O)Nc1noc2cccc(OC)c12 [Example 217, 2-Isopropoxy-6-methoxy-N-(4-methoxybenzo[d]isoxazol-3-yl)benzenesulfonamide]
IC50 [1]: > 125 µM | IC50 [2]: 18.4 µM | IC50 [3]: 10.2 µM

CCc1ccc(OC)c(S(=O)(=O)Nc2noc3cc(C)ccc23)c1 [Example 193, 5-Ethyl-2-methoxy-N-(6-methylbenzo[d]isoxazol-3-yl)benzenesulfonamide]
IC50 [1]: 53.1 µM | IC50 [2]: 15.5 µM | IC50 [3]: 1.95 µM

O=S(=O)(Nc1noc2ccccc12)c1ccc2c(c1)CCC2 [Example 64, N-(benzo[d]isoxazol-3-yl)-2,3-dihydro-1H-indene-5-sulfonamide]
IC50 [1]: > 125 µM | IC50 [2]: 106 µM | IC50 [3]: 26.7 µM

CCOc1ccc2c(NS(=O)(=O)c3cc(CC)ccc3OC)noc2c1 [Example 139]
IC50 [1]: 34.3 µM | IC50 [2]: 10 µM | IC50 [3]: 2.14 µM

CCc1ccc(OC)c(S(=O)(=O)Nc2noc3c(C)cccc23)c1 [Example 187, 5-Ethyl-2-methoxy-N-(7-methylbenzo[d]isoxazol-3-yl)benzenesulfonamide]
IC50 [1]: 65.3 µM | IC50 [2]: 22 µM | IC50 [3]: 5.66 µM

COc1cccc(OC)c1S(=O)(=O)Nc1noc2c(-c3ccccc3)ccc(OC)c12 [Example 142, 2,6-Dimethoxy-N-(4-methoxy-7-phenylbenzo[d]isoxazol-3-yl)benzenesulfonamide]
IC50 [1]: 32.2 µM | IC50 [2]: 1.16 µM | IC50 [3]: 3.3 µM

COc1cccc2onc(NS(=O)(=O)c3cc(C)cc4cccnc34)c12 [Example 78, N-(4-methoxybenzo[d]isoxazol-3-yl)-6-methyl quinoline-8-sulfonamide]
IC50 [1]: > 125 µM | IC50 [2]: > 125 µM | IC50 [3]: 93.8 µM

CCc1ccc(OC)c(S(=O)(=O)Nc2noc3cc(-n4cccn4)ccc23)c1 [Example 131]
IC50 [1]: 69.7 µM | IC50 [2]: 23.8 µM | IC50 [3]: 3.11 µM

O=S(=O)(Nc1noc2cccc(Cl)c12)c1ccccc1Oc1ccccc1 [Example 4, N-(4-chlorobenzo [d]isoxazol-3-yl)-2-phenoxybenzene sulfonamide]
IC50 [1]: 35.2 µM | IC50 [2]: 5.17 µM | IC50 [3]: 6.22 µM

O=S(=O)(Nc1noc2cccc(Cl)c12)c1ccc(S(F)(F)(F)(F)F)cc1 [Example 35, N-(4-chlorobenzo [d]isoxazol-3-yl)-4-(pentafluoro-λ^6-sulfanyl)benzene sulfonamide]
IC50 [1]: 33.8 µM | IC50 [2]: 8.75 µM | IC50 [3]: 4.63 µM

COc1ccc(S(=O)(=O)Nc2noc3cc(CO)ccc23)c(OC)c1 [Example 167]
IC50 [1]: 32.2 µM | IC50 [2]: 6.85 µM | IC50 [3]: 8.67 µM

CCc1ccc(OC)c(S(=O)(=O)Nc2noc3ccc(CC)cc23)c1 [Example 235]
IC50 [1]: 9.04 µM | IC50 [2]: 0.82 µM | IC50 [3]: 0.395 µM

CCOc1ccc(CC)cc1S(=O)(=O)Nc1noc2ccccc12 [Example 57, N-(benzo[d]isoxazol-3-yl)-2-ethoxy-5-ethylbenzene sulfonamide]
IC50 [1]: > 125 µM | IC50 [2]: > 125 µM | IC50 [3]: 56.2 µM

COCc1ccccc1S(=O)(=O)Nc1noc2cccc(OC)c12 [Example 88, N-(4-methoxybenzo[d]isoxazol-3-yl)-2-(methoxymethyl)benzene-sulfonamide]
IC50 [1]: > 125 µM | IC50 [2]: 7.51 µM | IC50 [3]: 41.2 µM

COc1cc(OC)c(S(=O)(=O)Nc2noc3cccc(OC)c23)c(OC)c1 [Example 85, 2,4,6-trimethoxy-N-(4-methoxybenzo[d]isoxazol-3-yl)benzene sulfonamide]
IC50 [1]: 28.5 µM | IC50 [2]: 1.77 µM | IC50 [3]: 3.87 µM

CCc1ccc(OC)c(S(=O)(=O)Nc2noc3ccc(C#N)cc23)c1 [Example 233]
IC50 [1]: > 125 µM | IC50 [2]: 17.9 µM | IC50 [3]: 9.95 µM

CCc1ccc(OC)c(S(=O)(=O)Nc2noc3cc(CC)ccc23)c1 [Example 194]
IC50 [1]: 37.8 µM | IC50 [2]: 6.87 µM | IC50 [3]: 1.51 µM

CCc1ccc(OC)c(S(=O)(=O)Nc2noc3ccc(-c4cnn(C)c4)cc23)c1 [Example 237, 5-Ethyl-2-methoxy-N-(5-(1-methyl-1H-pyrazol-4-yl)benzo[d]isoxazol-3-yl)benzenesulfonamide]
IC50 [1]: > 125 µM | IC50 [2]: 18 µM | IC50 [3]: 4.95 µM

COc1ccc(C(C)C)cc1S(=O)(=O)Nc1noc2ccccc12 [Example 49, N-(benzo[d]isoxazol-3-yl)-5-isopropyl-2-methoxy benzene sulfonamide]
IC50 [1]: 74.6 µM | IC50 [2]: 77.8 µM | IC50 [3]: 8.13 µM

O=S(=O)(Nc1noc2cccc(Cl)c12)c1c(F)cccc1F [Example 29, N-(4-chlorobenzo [d]isoxazol-3-yl)-2,6-difluorobenzene sulfonamide]
IC50 [1]: > 125 µM | IC50 [2]: 94.1 µM | IC50 [3]: > 125 µM

COCc1cccc(S(=O)(=O)Nc2noc3cccc(Cl)c23)c1 [Example 2, N-(4-chlorobenzo [d]isoxazol-3-yl)-3-(methoxymethyl) benzenesulfonamide]
IC50 [1]: > 125 µM | IC50 [2]: 15.5 µM | IC50 [3]: 94.6 µM

Cc1ccc(S(=O)(=O)Nc2noc3cccc(Cl)c23)cc1 [Example 27, N-(4-chlorobenzo [d]isoxazol-3-yl)-4-methylbenzenesulfonamide]
IC50 [1]: > 125 µM | IC50 [2]: 32.1 µM | IC50 [3]: 71.5 µM

COc1cccc(OC)c1S(=O)(=O)Nc1noc2cc(-c3ccncc3)cc(OC)c12 [Example 245, 2,6-Dimethoxy-N-(4-methoxy-6-(pyridin-4-yl)benzo[d]isoxazol-3-yl)benzenesulfonamide]
IC50 [1]: 57.6 µM | IC50 [2]: 2.76 µM | IC50 [3]: 3.9 µM

CCc1ccc(OC)c(S(=O)(=O)Nc2noc3cc(-n4nccn4)ccc23)c1 [Example 130]
IC50 [1]: > 125 µM | IC50 [2]: 21.7 µM | IC50 [3]: 2.96 µM

O=S(=O)(Nc1noc2cccc(Cl)c12)c1cccc(-c2ccccc2)c1 [Example 43, N-(4-chlorobenzo [d]isoxazol-3-yl)-[1,1-biphenyl]-3-sulfonamide]
IC50 [1]: 23 µM | IC50 [2]: 12.9 µM | IC50 [3]: 5.97 µM

CCc1ccc(OC)c(S(=O)(=O)Nc2noc3cc(-c4cncnc4)ccc23)c1 [Example 197, 5-Ethyl-2-methoxy-N-(6-(pyrimidin-5-yl)benzo[d]isoxazol-3-yl)benzenesulfonamide]
IC50 [1]: > 125 µM | IC50 [2]: 45.7 µM | IC50 [3]: 21 µM

COC(=O)c1ccc(Cl)cc1S(=O)(=O)Nc1noc2cccc(Cl)c12 [Example 115, Methyl 4-chloro-2-(N-(4-chlorobenzo[d]isoxazol-3-yl)sulfamoyl)benzoate]
IC50 [1]: 23.7 µM | IC50 [2]: 95.5 µM | IC50 [3]: 29 µM

COC(=O)c1ccc(OC)c(S(=O)(=O)Nc2noc3ccccc23)c1 [Example 50, methyl 3-(N-(benzo[d]isoxazol-3-yl)sulfamoyl)-4-methoxy benzoate]
IC50 [1]: > 125 µM | IC50 [2]: > 125 µM | IC50 [3]: 123 µM
